Data set [1] deals with T1, Transient receptor potential cation channel subfamily V member 1 (Homo sapiens, UniProt Q8NER1). The data set is described as follows: Antagonist activity against human TRPV1 expressed in HEK293 cells assessed as capsaicin-induced calcium flux by FLIPR assay. The format is cell-based. In general terms: A change in cytosolic calcium serves as a functional read-out for many receptors and channels.

The target of data set [2] is T1, Transient receptor potential cation channel subfamily V member 1. The data set is described as follows: Antagonist activity against human TRPV1 expressed in HEK293 cells assessed as ph 5.0-induced calcium flux at 30 uM by FLIPR assay. The format is cell-based.
The species entered for the next data set is Rattus norvegicus. The data set is described as follows: Induction of hyperthermia in rat assessed as increase in body temperature measured every 5 mins during study period by telemetry. The format is organism-based. Conditions: in vivo.
The target in the next data set is Cytochrome P450 2D6 (Homo sapiens, UniProt P10635). The data set is described as follows: Inhibition of CYP2D6 in human liver microsomes using AMMC substrate and NADPH incubated up to 2 hrs. Format: ADME. A general note: Liver microsomes are vesicles of endoplasmic reticulum, rich in cytochrome P450 enzymes.
A short description of data set [3]: Intrinsic clearance in human liver microsomes. The format is ADME. The following applies: read-out: CLH.
The next data set has as its target Cytochrome P450 3A4 (Homo sapiens, UniProt P08684). Description: Inhibition of CYP3A4 in human liver microsomes using 7-benzyloxyquiniline substrate and NADPH incubated up to 2 hrs.

What is called IC50 is the point on the concentration scale where inhibition reaches its midpoint. Usually inhibition stands for the drop in the measured response relative to a control, in per cent.

Cytochrome P450 3A4, sequence (P08684 whole entry): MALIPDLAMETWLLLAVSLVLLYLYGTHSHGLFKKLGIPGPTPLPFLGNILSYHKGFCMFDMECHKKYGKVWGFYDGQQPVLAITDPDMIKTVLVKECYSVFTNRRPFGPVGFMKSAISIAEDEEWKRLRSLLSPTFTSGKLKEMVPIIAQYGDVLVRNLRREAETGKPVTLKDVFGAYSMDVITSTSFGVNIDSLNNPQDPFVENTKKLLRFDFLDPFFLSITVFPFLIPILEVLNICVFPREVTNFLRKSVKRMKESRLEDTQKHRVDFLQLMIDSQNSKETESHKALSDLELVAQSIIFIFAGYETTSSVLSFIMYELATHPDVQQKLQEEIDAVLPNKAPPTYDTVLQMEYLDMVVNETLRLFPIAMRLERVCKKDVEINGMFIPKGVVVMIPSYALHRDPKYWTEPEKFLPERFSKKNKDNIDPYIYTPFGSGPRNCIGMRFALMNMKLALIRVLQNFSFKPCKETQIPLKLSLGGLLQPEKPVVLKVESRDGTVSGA
T1 sequence (Q8NER1 whole entry): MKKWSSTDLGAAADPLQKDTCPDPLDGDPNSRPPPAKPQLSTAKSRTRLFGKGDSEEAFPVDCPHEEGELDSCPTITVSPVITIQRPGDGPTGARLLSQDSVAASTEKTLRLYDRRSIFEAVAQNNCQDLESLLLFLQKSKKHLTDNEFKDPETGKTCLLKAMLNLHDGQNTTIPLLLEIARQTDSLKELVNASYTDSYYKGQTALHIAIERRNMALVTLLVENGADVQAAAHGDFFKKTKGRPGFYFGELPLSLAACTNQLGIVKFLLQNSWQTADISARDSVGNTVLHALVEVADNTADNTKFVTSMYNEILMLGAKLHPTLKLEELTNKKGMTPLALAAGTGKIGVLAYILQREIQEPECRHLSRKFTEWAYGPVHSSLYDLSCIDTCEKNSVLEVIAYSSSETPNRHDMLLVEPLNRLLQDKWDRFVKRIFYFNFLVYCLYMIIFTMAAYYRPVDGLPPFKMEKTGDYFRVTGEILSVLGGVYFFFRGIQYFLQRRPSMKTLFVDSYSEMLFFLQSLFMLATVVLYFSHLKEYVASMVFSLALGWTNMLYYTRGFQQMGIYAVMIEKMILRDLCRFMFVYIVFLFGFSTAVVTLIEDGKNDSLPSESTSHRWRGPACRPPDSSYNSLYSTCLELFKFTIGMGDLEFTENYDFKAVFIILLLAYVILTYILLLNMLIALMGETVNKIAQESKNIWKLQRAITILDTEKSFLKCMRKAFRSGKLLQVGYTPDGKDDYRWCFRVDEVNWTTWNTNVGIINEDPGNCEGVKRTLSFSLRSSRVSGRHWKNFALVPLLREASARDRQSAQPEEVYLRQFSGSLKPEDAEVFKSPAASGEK
Cytochrome P450 2D6, sequence (P10635 whole entry): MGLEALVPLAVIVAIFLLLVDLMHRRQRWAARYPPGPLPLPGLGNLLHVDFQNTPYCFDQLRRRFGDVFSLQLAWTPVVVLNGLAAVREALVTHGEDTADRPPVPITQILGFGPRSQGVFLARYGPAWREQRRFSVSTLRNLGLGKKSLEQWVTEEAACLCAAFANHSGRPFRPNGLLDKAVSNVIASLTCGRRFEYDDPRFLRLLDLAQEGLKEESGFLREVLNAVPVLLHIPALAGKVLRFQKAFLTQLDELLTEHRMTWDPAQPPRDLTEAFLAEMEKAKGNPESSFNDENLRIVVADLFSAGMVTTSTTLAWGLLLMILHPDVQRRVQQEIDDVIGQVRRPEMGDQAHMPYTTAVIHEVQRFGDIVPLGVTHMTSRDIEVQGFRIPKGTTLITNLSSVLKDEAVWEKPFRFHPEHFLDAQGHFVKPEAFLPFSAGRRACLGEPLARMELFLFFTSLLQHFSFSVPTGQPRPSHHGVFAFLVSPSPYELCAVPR

Take `CC1(C)C[C@@H](NC(=O)Nc2cccc3c2C[C@@H](O)CC3)c2ccc(F)cc2O1`: the 50% inhibitory concentration (IC50) in data set [1] turned out to be 7 nM. Besides, the inhibition in data set [2] is 99%. Also, in the data set filed under Rattus norvegicus, the deltaT worked out at 1 °C.
The matching figures for `Cc1cc2c(NC(=O)N[C@@H]3CC(CF)(CF)Oc4cc(Cl)ccc43)c(Cl)ccc2cn1`: 350 nM, 95% and 1.1 °C.
Take `Cc1cc2c(NC(=O)N[C@@H]3CC(C)(C)Oc4cc(F)ccc43)cccc2cn1`: the figures for the IC50 (on Cytochrome P450 2D6; in data set [1]; against Cytochrome P450 3A4) were 17000 nM, 3 nM and greater than 20000 nM, respectively. The inhibition in data set [2] was determined as 70%. For the same compound, the deltaT in the data set filed under Rattus norvegicus was 0 °C. The microsomal CLint in data set [3] turned out to be 140 µL/min/mg.
On to `Cc1cc2c(NC(=O)N[C@@H]3CC(CF)(CF)Oc4cc(C5CC5)ccc43)cccc2cn1`, for which the figures for the IC50 (against Cytochrome P450 2D6; in data set [1]; against Cytochrome P450 3A4) were greater than 20000 nM, 5 nM and greater than 20000 nM, respectively. The inhibition in data set [2] is 91%. In addition, the deltaT in the data set listed under Rattus norvegicus turned out to be 0.8 °C. Besides, the microsomal CLint in data set [3] was found to be 240 µL/min/mg.
On to `Cc1cc2c(NC(=O)N[C@@H]3CC(C)(C)Oc4c(F)cc(F)cc43)cccc2cn1`, for which the IC50 at Cytochrome P450 2D6 is greater than 20000 nM; in data set [1] it was 32 nM; against Cytochrome P450 3A4 it was greater than 20000 nM. The inhibition in data set [2] worked out at 69%. For the same compound, the deltaT in the data set filed under Rattus norvegicus amounted to 0 °C. Also, the microsomal CLint in data set [3] turned out to be 100 µL/min/mg.
Turning to `Cc1cc2c(NC(=O)N[C@@H]3CC(CF)(CF)Oc4cc(F)ccc43)cccc2cn1`, the IC50 against Cytochrome P450 2D6 is 19000 nM; in data set [1] it was 5 nM; against Cytochrome P450 3A4, greater than 20000 nM. In addition, the inhibition in data set [2] came out at 72%. Besides, in the data set filed under Rattus norvegicus, the deltaT came out at 0 °C. Also, the microsomal CLint in data set [3] is 82 µL/min/mg.
As for `Cc1cc2c(NC(=O)N[C@@H]3CC(CF)(CF)Oc4cc(Cl)ccc43)cc(F)cc2cn1`, the IC50 in data set [1] turned out to be 60 nM. Besides, the inhibition in data set [2] was determined as 96%. Besides, the deltaT in the data set listed under Rattus norvegicus was determined as 1.1 °C.
Turning to `Cc1cc2c(NC(=O)N[C@@H]3CC(CF)(CF)Oc4cc(Cl)ccc43)cc(C(F)(F)F)cc2cn1`, in data set [1], the IC50 turned out to be 36 nM. Moreover, the inhibition in data set [2] was 95%. Moreover, the deltaT in the data set listed under Rattus norvegicus came out at 0.9 °C.
Turning to `Cc1cc2c(NC(=O)N[C@@H]3CC(CF)(CF)Oc4cc(Cl)ccc43)c(F)ccc2cn1`, the IC50 in data set [1] was 22 nM. Also, the inhibition in data set [2] was 91%. The deltaT in the data set filed under Rattus norvegicus came out at 0.8 °C.
With `C[C@@H]1CN(c2ncccc2Cl)CC=C1C(=O)Nc1ccc(C(F)(F)F)cc1`, in data set [1], the IC50 amounted to 21 nM. The inhibition in data set [2] stood at 98%. Moreover, in the data set filed under Rattus norvegicus, the deltaT worked out at 1 °C.
The matching figures for `CC1(C)C[C@@H](NC(=O)Nc2cccc3cnccc23)c2ccccc2O1`: 4 nM, 60% and -0.4 °C.
The like results for `Cc1cc2c(NC(=O)N[C@@H]3CC(CF)(CF)Oc4cc(Cl)ccc43)c(C)ccc2cn1` were, in that order, 74 nM, 96% and 1.1 °C.
Regarding `CC(C)(C)c1ccc2c(c1)CC[C@H]2NC(=O)Nc1cccc2[nH]ncc12` [ABT-102], the inhibition in data set [2] worked out at 98%. Further, the deltaT in the data set filed under Rattus norvegicus was determined as 0.8 °C.
Regarding `Cn1ncc2c(NC(=O)N[C@@H]3CC(C)(C)Oc4cc(F)ccc43)cccc21`, in data set [1], the IC50 amounted to 7 nM. Moreover, in data set [2], the inhibition turned out to be 98%. Besides, the deltaT in the data set listed under Rattus norvegicus was determined as 1.3 °C.
For `CC1(C)C[C@@H](NC(=O)Nc2cccc3c2C[C@H](O)CC3)c2ccc(F)cc2O1`, the IC50 in data set [1] was determined as 7 nM. In addition, the inhibition in data set [2] amounted to 98%. Besides, the deltaT in the data set listed under Rattus norvegicus amounted to 1.1 °C.
The matching figures for `Cc1cc2c(NC(=O)N[C@@H]3CC(CF)(CF)Oc4cc(Cl)ccc43)ccc(C)c2cn1`: 97 nM, 97% and 1.2 °C.
In the case of `Cc1nc(Nc2cccc3c2C[C@H](O)CC3)oc1-c1ccc(C(F)(F)F)cc1`, the inhibition in data set [2] was determined as 99%. For the same compound, in the data set filed under Rattus norvegicus, the deltaT amounted to 1.4 °C.
On to `CC1(C)C[C@@H](NC(=O)Nc2cccc3[nH]ncc23)c2ccc(F)cc2O1`, for which the IC50 in data set [1] is 16 nM. In data set [2], the inhibition was determined as 95%. Further, the deltaT in the data set listed under Rattus norvegicus was found to be 1.2 °C.

These data come from ChEMBL document CHEMBL3352000, “Discovery of (R)-1-(7-chloro-2,2-bis(fluoromethyl)chroman-4-yl)-3-(3-methylisoquinolin-5-yl)urea (A-1165442): a temperature-neutral transient receptor potential vanilloid-1 (TRPV1) antagonist with analgesic efficacy” (J Med Chem, 2014).
